The text below walks through data of PubChem BioAssay (NCI).

Structures are written as SMILES.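 How tested: cells in 96-well plates exposed to compound for 48 hours at five concentrations. GI50: concentration for 50% inhibition of growth. The concentration for full growth arrest is given as TGI.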

The test system of the first assay is SR leukemia. Kind of assay: NCI tumour cell line growth inhibition, 48 h.
Consider `CCCCCCCCN=C(N)c1ccc(N2CCN(c3ccc(C(N)=NCCCCCCCC)cc3)CC2)cc1`, for which the GI50 is 0.97 µM and the TGI is 2.26 µM.

The compound `NNC(=O)/C(=C/c1ccc(Cl)cc1Cl)NC(=O)c1ccccc1` returned a TGI greater than 100 µM.

With `COc1cc(OC(C)=O)cc2c(OC(C)=O)ccc(OC(C)=O)c12`, the TGI is greater than 100 µM.

On to `COc1ccc2c(c1)cn1c3ccc(O)cc3nc(N)c21`, for which the GI50 is 0.0743 µM and the TGI was 2.76 µM.

As for `OC(c1cc(-c2ccccc2)nc2ccc(Cl)cc12)C1CCCCN1` (configuration not stated), the GI50 is 1.88 µM and the TGI was 5.44 µM.

`CCc1ccccc1NC(=O)C(=O)CC(=O)c1sc(Nc2ccccc2)nc1C` gave a TGI greater than 100 µM.

Consider `CC#C[C@]1(O)CC[C@H]2[C@@H]3CCC4=CC(=O)CCC4=C3[C@@H](c3ccc4c(c3)OCO4)C[C@@]21C`, for which the GI50 is 77.2 µM and the TGI stood at 479 µM.

Consider `COc1ccc(OC)c(/C=C2\SC(=S)NC2=O)c1`, for which the GI50 was 37.6 µM and the TGI is greater than 100 µM.

The subject of the next assay is A549 NSCLC. Kind of assay: NCI tumour cell line growth inhibition, 48 h.
For the compound `COc1ccc(-c2c3c(N)nc(-c4ccncc4)nc3nc3c2c(C)nn3-c2ccccc2)cc1`, the GI50 was 2.4 µM and the TGI is 35.1 µM.

On to `COc1cccc(-n2ncc3c(N/N=C/c4ccc(C(=O)NCCN(C)C)cc4)ncnc32)c1`, for which the GI50 was 3.33 µM and the TGI was found to be 6.91 µM.

The compound `O=c1/c(=C/c2ccccc2F)sc2nc3ccccc3n12` had a TGI greater than 100 µM.

Regarding `CC1(C)CC(=O)c2c(C(F)(F)F)nn(-c3ccc(C(N)=O)c(NC4CCC(OC(=O)CN)CC4)c3)c2C1` (configuration not stated), the GI50 is 0.0666 µM and the TGI stood at 32.8 µM.

Take `O=C(NCCCCCCNC(=O)n1cc(F)c(=O)[nH]c1=O)NCCCOCCOCCOCCOCCOCCOCCOCCOCCOCCOCCOCCOCCOCCOCCOCCOCCOCCOCCOCCOCCOCCCNC(=O)C(O)C(O)C(O)C(O)CO` (configuration not stated): the TGI is greater than 100 µM.

As for `COc1cc(C2CC(c3ccc4c(c3)OCO4)=NN2C=O)cc(OC)c1OC` (configuration not stated), the GI50 was greater than 24.5 µM and the TGI is greater than 100 µM.

As to `CCCC(=O)OC1C(C(O)CO)OC2OC(C)(C)OC21` (configuration not stated), the TGI is greater than 100 µM.

Regarding `Cc1ccc(N=Cc2ccc3c(c2)OCO3)cc1C`, the TGI was greater than 100 µM.

As to `COC(=O)[C@H](C[C@H](Cc1ccccc1)NC(=O)c1csc([C@@H](C[C@H](C(C)C)N(C)C(=O)[C@@H](NC(=O)[C@H]2CCCCN2C)C(C)C)OC(C)=O)n1)NC(=O)OCc1ccccc1`, the GI50 was 0.00156 µM and the TGI is greater than 9 µM.

Take `CCCCCCCCN=C(N)c1ccc(N2CCN(c3ccc(C(N)=NCCCCCCCC)cc3)CC2)cc1`: the GI50 was 1.67 µM and the TGI came out at 9.08 µM.

Compound `NNC(=O)/C(=C/c1ccc(Cl)cc1Cl)NC(=O)c1ccccc1` showed a TGI greater than 100 µM.

As for `COc1cc(OC(C)=O)cc2c(OC(C)=O)ccc(OC(C)=O)c12`, the TGI was greater than 100 µM.

Regarding `COc1ccc2c(c1)cn1c3ccc(O)cc3nc(N)c21`, the GI50 is 0.174 µM and the TGI was determined as 4.22 µM.

For `OC(c1cc(-c2ccccc2)nc2ccc(Cl)cc12)C1CCCCN1` (configuration not stated), the GI50 was 3.07 µM and the TGI is 8.21 µM.

In turn, `CCc1ccccc1NC(=O)C(=O)CC(=O)c1sc(Nc2ccccc2)nc1C` gave a TGI greater than 100 µM.

For the compound `CC#C[C@]1(O)CC[C@H]2[C@@H]3CCC4=CC(=O)CCC4=C3[C@@H](c3ccc4c(c3)OCO4)C[C@@]21C`, the GI50 was 93.4 µM and the TGI was determined as 875 µM.

In the case of `COc1ccc(OC)c(/C=C2\SC(=S)NC2=O)c1`, the GI50 is 26 µM and the TGI amounted to 89.9 µM.

In a further assay the test system is SK-MEL-28 melanoma. Kind of assay: NCI tumour cell line growth inhibition, 48 h.
For `COc1ccc(-c2c3c(N)nc(-c4ccncc4)nc3nc3c2c(C)nn3-c2ccccc2)cc1`, the GI50 was 4.25 µM and the TGI stood at 40.5 µM.

As to `COc1cccc(-n2ncc3c(N/N=C/c4ccc(C(=O)NCCN(C)C)cc4)ncnc32)c1`, the GI50 was 3.5 µM and the TGI is 7.28 µM.

The compound `O=c1/c(=C/c2ccccc2F)sc2nc3ccccc3n12` yielded a TGI greater than 100 µM.

`CC1(C)CC(=O)c2c(C(F)(F)F)nn(-c3ccc(C(N)=O)c(NC4CCC(OC(=O)CN)CC4)c3)c2C1` (configuration not stated): the GI50 is 0.0522 µM and the TGI was found to be 20.6 µM.

Turning to `O=C(NCCCCCCNC(=O)n1cc(F)c(=O)[nH]c1=O)NCCCOCCOCCOCCOCCOCCOCCOCCOCCOCCOCCOCCOCCOCCOCCOCCOCCOCCOCCOCCOCCOCCCNC(=O)C(O)C(O)C(O)C(O)CO` (configuration not stated), the TGI was greater than 100 µM.

Consider `COc1cc(C2CC(c3ccc4c(c3)OCO4)=NN2C=O)cc(OC)c1OC` (configuration not stated), for which the GI50 is 6.36 µM and the TGI was greater than 100 µM.

For the compound `CCCC(=O)OC1C(C(O)CO)OC2OC(C)(C)OC21` (configuration not stated), the TGI was greater than 100 µM.

As for `Cc1ccc(N=Cc2ccc3c(c2)OCO3)cc1C`, the TGI was greater than 100 µM.

Consider `COC(=O)[C@H](C[C@H](Cc1ccccc1)NC(=O)c1csc([C@@H](C[C@H](C(C)C)N(C)C(=O)[C@@H](NC(=O)[C@H]2CCCCN2C)C(C)C)OC(C)=O)n1)NC(=O)OCc1ccccc1`, for which the GI50 is 0.0025 µM and the TGI was found to be 2.5 µM.

Take `CCCCCCCCN=C(N)c1ccc(N2CCN(c3ccc(C(N)=NCCCCCCCC)cc3)CC2)cc1`: the GI50 was 2.74 µM and the TGI came to 17.2 µM.

`NNC(=O)/C(=C/c1ccc(Cl)cc1Cl)NC(=O)c1ccccc1` had a TGI greater than 100 µM.

In turn, `COc1cc(OC(C)=O)cc2c(OC(C)=O)ccc(OC(C)=O)c12` had a TGI greater than 100 µM.

On to `COc1ccc2c(c1)cn1c3ccc(O)cc3nc(N)c21`, for which the GI50 is 0.126 µM and the TGI was 5.31 µM.

Regarding `OC(c1cc(-c2ccccc2)nc2ccc(Cl)cc12)C1CCCCN1` (configuration not stated), the GI50 was 1.77 µM and the TGI came to 3.36 µM.

The compound `CCc1ccccc1NC(=O)C(=O)CC(=O)c1sc(Nc2ccccc2)nc1C` came in with a TGI greater than 100 µM.

For `CC#C[C@]1(O)CC[C@H]2[C@@H]3CCC4=CC(=O)CCC4=C3[C@@H](c3ccc4c(c3)OCO4)C[C@@]21C`, the GI50 was 85.8 µM and the TGI came out at 276 µM.

`COc1ccc(OC)c(/C=C2\SC(=S)NC2=O)c1`: the GI50 is 42.4 µM and the TGI is greater than 100 µM.
